Assays:
σ1R oligomers = biological target: T1, σ1R oligomers (Mus musculus, UniProt O55242); assay: In vitro made σ1R oligomers on agarose-σ1R; assay type: biochemical, murine; conditions: agarose-σ1R plus free σ1Rs (100 nM), Tris-HCl pH 7.4, 0.2% CHAPS, 2.5 mM CaCl2
T1 construct: The coding region of the full-length murine σ1R (AF004927); GST (N); made in house; host or cells: E. coli BL21 (KRX)
Protocol: In ex vivo fishing assays performed on mouse solubilized brain membranes enriched in synaptosomes (SBM), our bait, agarose-covalently attached σ1Rs (agarose-σ1R), captured diverse prey, such as trimeric G proteins, σ1Rs and σ2Rs (Figure 4C). Because σ1Rs form oligomers in vivo that can be altered by ligands, we added in vitro free σ1Rs to agarose-σ1Rs. After removing the unbound σ1Rs, the extent of the σ1R oligomerization that remained around the agarose-σ1R was determined by SDS-PAGE followed by Western blot analysis (Figure S3).
Figure S4. In vitro made σ1R oligomers. A) Effect of σ1R ligands on the formation of σ1R oligomers.
Agarose (Θ)-attached σ1Rs were incubated for 30 min in the presence of recombinant free σ1Rs (100 nM) in 300 μL of 50 mM Tris-HCl (pH 7.4), 0.2% CHAPS, and 2.5 mM CaCl2. After removing unbound σ1R proteins, the assays were performed in the absence (control) or presence of increasing concentrations of σ1R ligands. The agarose-bound σ1R protein complexes were obtained by centrifugation, washed three times, solubilized in 2x Laemmli buffer containing β-mercaptoethanol, resolved by SDS-PAGE, and analyzed by Western blotting (for more details see Methods). […] The G proteins that remained bound to Θ-σ1R oligomers were determined as in Figure 4C. The arrows indicate an estimated afﬁnity of the ligand for σ1Rs, as determined through in vitro assays. […]

σ1R oligomers-σ2R = biological target: T2, σ1R oligomers-σ2R (Mus musculus, UniProt O55242); assay: Ex vivo fishing assay: σ1R and σ2R of mouse cerebral cortex bound to agarose-σ1R oligomers; assay type: biochemical; conditions: wild-type mouse cerebral cortex SBM; n = 3
T2 construct: The coding region of the full-length murine σ1R (AF004927); GST (N); made in house; host or cells: E. coli BL21 (KRX) for the σ1R bait; σ2R and further σ1R come from solubilised mouse cerebral cortex synaptosomes
T2 sequence (O55242 whole entry): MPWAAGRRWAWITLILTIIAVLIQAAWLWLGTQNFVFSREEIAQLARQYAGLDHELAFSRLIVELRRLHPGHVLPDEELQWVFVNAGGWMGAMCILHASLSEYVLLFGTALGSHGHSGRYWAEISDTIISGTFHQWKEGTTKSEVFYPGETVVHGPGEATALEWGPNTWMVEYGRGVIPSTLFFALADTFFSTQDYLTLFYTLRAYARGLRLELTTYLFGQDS
Protocol: (B) Θ-σ1R captured G proteins in CD1 wild-type and σ2R^−/− SBM. Ex vivo fishing assays were performed as described in Figure 4C. The data from σ2R^−/− solubilized cortical tissue were referred to the wild-type control (arbitrary value of 1). (C) The σ1R oligomers captured G proteins from σ2R^−/− mouse SBM. For each Gα subunit and the σ1R, the immunosignals in the absence of the acetylated peptide were the controls (C, value of 1). […] (A,B,D,E) Data are the mean ± SD, n = 3. Data were analyzed by pairwise Holm–Sidak multiple comparison tests following ANOVA: p < 0.05, 1-β > 0.80.
For fishing studies, solubilization of neural synaptosomes from cerebral cortices or PAG was carried out at 4 °C in RIPA buffer. The membranes were incubated at 4 °C for 16 h with agitation, and then centrifuged at 10,000× g for 5 min. The supernatant was cleared with 20 μL of Sepharose 4B (#17-0120-01, GE Healthcare) pre-equilibrated for 1 h at 4 °C, followed by centrifugation at 4300× g for 5 min. The σ1R was immobilized through covalent attachment to N-Hydroxysuccinimide (NHS)-activated Sepharose 4 fast flow (4FF, #17-0906-01; GE) according to the manufacturer’s instructions. […]

MORs = conditions: tritiated naloxone and morphine, mouse brain synaptosomes; cited from earlier work
Excerpt: (§1) ^αN-acetyl β-End 1–31 prevented or alleviated a series of negative symptoms in animals, such as the brain injury caused by pMCAO, the convulsive syndrome promoted by icv-injection of NMDA, and mechanical allodynia caused by unilateral sciatic nerve CCI.

[1] = tested on: [^125I]-Tyr^27 β-End 1–31 binding site (probably the σ1R site); conditions: 5 pM [125I]-Tyr27 β-End 1–31; cited from earlier work
Excerpt: as §1

[2] = tested on: CD1 mice (wild-type and σ1R−/−); conditions: single icv dose; cited from earlier work

T1 sequence (O55242 whole entry): as above

Row | Substance | effect on in vitro made σ1R oligomers (σ1R oligomers) | effect on σ1R oligomerization and σ2R presence at the agarose-σ1R bait (σ1R oligomers-σ2R) | affinity to MORs (MORs) | fraction of [^125I]-Tyr^27 β-End 1–31 specific binding abolished [1] | duration of the effect of a single dose on analgesia [2] [h]
1 | ^αN-acetyl β-End 1–31: β-End 1–31 acetylated at N terminal Y1, α position | released σ1Rs from these oligomers | reduces the extent of σ1R oligomerization, and increases the association of σ2Rs with the bait | μM range | 20–30% | 24
2 | KKGE [β-End 28–31, C-terminal tetrapeptide of β-End 1–31] | released σ1Rs from these oligomers | – | – | – | –

Source: publication PMC9820303, “^αN-Acetyl β-Endorphin Is an Endogenous Ligand of σ1Rs That Regulates Mu-Opioid Receptor Signaling by Exchanging G Proteins for σ2Rs in σ1R Oligomers” (International Journal of Molecular Sciences, 2022)
